# According to PubChem BioAssay AID624167 (Sanford-Burnham Center for Chemical Genomics, 2012):
# Activity calls are given as the source filed them.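 How the source made its calls: active means mean IC50 for reducing PEG3 promoter reporter signal at or below a set limit, with IC50 above the limit in both counter screens; inactive means the rest, including counter screen hits.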
# Tests used:
# [1] = biological target: PEG-3 (UniProt Q6IN02); assay: inhibition of PEG-3 promoter-driven reporter – cell-based, HeLa, luciferase, CREF/GAPDH counter-screen panel, dose response (AID 624167); settings: HeLa PEG-Prom luciferase reporter, overnight, CREF/GAPDH counter-screens, mean of runs
# PEG-3 (UniProt Q6IN02), sequence (Q6IN02 whole entry, looked up): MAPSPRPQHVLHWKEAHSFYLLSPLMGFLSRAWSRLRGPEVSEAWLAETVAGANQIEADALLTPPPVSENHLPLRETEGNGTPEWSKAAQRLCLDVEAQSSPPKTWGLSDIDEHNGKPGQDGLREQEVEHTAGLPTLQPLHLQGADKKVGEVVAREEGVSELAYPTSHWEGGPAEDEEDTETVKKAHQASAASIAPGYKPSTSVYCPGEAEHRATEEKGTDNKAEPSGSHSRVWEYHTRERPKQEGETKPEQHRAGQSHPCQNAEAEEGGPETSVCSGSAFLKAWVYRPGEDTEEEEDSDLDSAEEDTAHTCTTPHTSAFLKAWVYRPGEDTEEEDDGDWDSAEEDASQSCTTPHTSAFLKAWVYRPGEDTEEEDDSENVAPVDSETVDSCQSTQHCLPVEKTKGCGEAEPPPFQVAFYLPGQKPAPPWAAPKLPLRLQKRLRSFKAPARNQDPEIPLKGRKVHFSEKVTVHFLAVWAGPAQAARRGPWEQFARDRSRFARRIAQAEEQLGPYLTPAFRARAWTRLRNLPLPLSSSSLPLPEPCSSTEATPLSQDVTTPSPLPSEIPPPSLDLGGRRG
# [2] = test system: PEG-3; assay: as above; settings: HeLa PEG-Prom luciferase reporter, overnight, CREF/GAPDH counter-screens
# [3] = run 1, dose range 1, individual replicate IC50 per panel
# [4] = run 2, dose range 1, individual replicate IC50 per panel
SMILES,IC50 [1],"IC50 [2, 3]","IC50 [2, 4]"
CCCCCCSc1cc(-c2nc3ccc(C)cn3c2NCCCC)ccc1OC,16.2 µM,21.4 µM,11 µM
Cc1ccc(-n2cc(CNCCCn3ccnc3C)c(-c3ccc(F)cc3)n2)cc1,13 µM,15.5 µM,10.6 µM
CCCCn1nnnc1C(CCSC)N1CCC(n2c(=O)[nH]c3ccccc32)CC1 (centres undefined),inactive,34.4 µM,70.3 µM
CCN1CCN(C(c2ccc(C(F)(F)F)cc2)c2ccc3cccnc3c2O)CC1 (centres undefined),19.1 µM,21.7 µM,16.5 µM
CC1(C)C(=O)C=CC(=O)C(C)(C)C(=O)C=CC(=O)C(C)(C)C2=CC=C(O2)C(C)(C)C(=O)C=CC1=O,14.2 µM,16.6 µM,11.8 µM
COc1cccc(N2CCN(CC(=O)Nc3ccccc3C(=O)NCc3ccccc3)CC2)c1,inactive,16.6 µM,35 µM
Oc1ccc(C[C@H]2CNCCN2CCc2cc(C(F)(F)F)cc(C(F)(F)F)c2)cc1,inactive,26.7 µM,19.8 µM
OCCNCc1cc(Br)ccc1OCc1ccc(Cl)cc1Cl,17.4 µM,16.9 µM,17.9 µM
COc1cccc(Nc2nc(C(N)Cc3ccccc3)cs2)n1 (centres undefined),18.2 µM,20.4 µM,15.9 µM
CC1CCCCN1CCNC(=O)c1ccc2c(=O)n(Cc3ccc(Cl)cc3)c(=S)[nH]c2c1 (centres undefined),inactive,19.6 µM,25.3 µM
CN1CCC(N(C)S(=O)(=O)c2ccc(NC(=O)COc3ccc(Br)cc3Cl)cc2)CC1,18.7 µM,23 µM,14.5 µM
Cc1ccc(N(Cc2cc(=O)[nH]c3ccccc23)C(=O)CCl)c(C)c1,inactive,22.9 µM,29.4 µM
Cc1ccc(F)cc1-c1cc2nc(NCCCN(C)C)n(C)c(=O)c2s1,inactive,30.9 µM,59.5 µM
COc1cc(-c2cc(C(=O)Nc3cc(S(=O)(=O)N4CCOCC4)ccc3C)c3ccccc3n2)cc(OC)c1OC,11.8 µM,11.1 µM,12.5 µM
c1ccc(-c2cc(-c3nc4ccccc4[nH]3)c3ccccc3n2)cc1,inactive,15.3 µM,39.9 µM
CCN(C(=O)CSc1nc2n[nH]c(C)c2c(=N)n1-c1ccc(Cl)c(C)c1)c1cccc(C)c1,20 µM,19.1 µM,20.8 µM
COCc1ccc(CN2CCC(C(=O)Nc3cccc(-c4cccc(Cl)c4)c3)CC2)o1,13.3 µM,16.8 µM,9.78 µM

SMILES,IC50 [1],"IC50 [2, 3]","IC50 [2, 4]"
CN(C)c1ccc(N=Nc2nc3ccccc3n2C)cc1,inactive,20.6 µM,< 100 µM
CCCCN(C)CCNC(=O)c1cc(-c2cccnc2)nc2ccc(S(=O)(=O)N3CCC(C)CC3)cc12,12.9 µM,10.3 µM,15.4 µM
CCOC(=O)c1cnc2c(cnn2C)c1NCCCN(C)C,inactive,18.9 µM,28.8 µM
CC1(C)Oc2cc3oc(-c4cc(O)cc(O)c4)cc3cc2CC1O (centres undefined),inactive,37.1 µM,13.7 µM
CC1(Cc2ccc(Cl)c(Cl)c2)C(=O)Nc2ccc(S(=O)(=O)NC3CCCCC3)cc21 (centres undefined),17.7 µM,18.1 µM,17.2 µM
CCN1CCCC1CN(Cc1cc2ccc(C)cc2[nH]c1=O)C(=S)Nc1ccc(OC)cc1 (centres undefined),inactive,42 µM,37.5 µM
CCOc1cc(/C=N/N=C(N)N)ccc1OCc1ccc(Cl)cc1,13 µM,16.9 µM,9.05 µM
O=C1/C(=C\c2cccc(O)c2O)SC(=S)N1Cc1ccccc1,inactive,14.1 µM,30.1 µM
CCN1CCN(c2nc(Nc3cc(OC)ccc3OC)nc(Nc3cc(OC)ccc3OC)n2)CC1,17.5 µM,17 µM,18.1 µM
Cc1ccc(Cn2c(=N)n(CC(=O)c3ccccc3)c3ccccc32)cc1,16.5 µM,15.4 µM,17.6 µM
O=C1NC(=O)N(Cc2ccccc2)C(=O)/C1=C\C=C\c1ccco1,13.5 µM,15.1 µM,12 µM
CC1=CC2OC3CC4OC(=O)C=CC=CC(C(C)O)OCC(O)C(C)CC(=O)OCC2(CC1O)C4(C)C31CO1 (centres undefined),< 0.2 µM,< 0.2 µM,< 0.2 µM
COc1ccccc1CN(C)C(=O)c1cc(-c2cccs2)nc2ccccc12,13.5 µM,14.3 µM,12.7 µM
Cc1ccc2nc(N(CCCN(C)C)C(=O)c3ccc4c(c3)CCCC4)sc2c1,19.8 µM,22 µM,17.6 µM
Cc1cccc(NC(=O)CSc2nc3ccccc3c3nc(CCc4c(C)n[nH]c4C)nn23)c1,inactive,27.9 µM,37.7 µM
Cc1ccc(C(=O)NCCc2cccs2)cc1,12 µM,3.98 µM,20 µM
